Results taken from patent US9662328B2, “Targeting human thymidylate kinase induces DNA repair toxicity in malignant tumor cells” (NATIONAL YANG-MING UNIVERSITY, priority 2010, dated 2017).
Several values for one entry are separate records, joined by “and”; a condition that tells them apart may be missing. Equal entries are not always repeated.

How the values were obtained:
[1] = target: T1, hTMPK (Homo sapiens, UniProt P23919); test: In vitro inhibitory activity against human TMPK at 2 μM; assay type: biochemical; details: test compounds at 2 μM concentration
T1 sequence (P23919 1-212): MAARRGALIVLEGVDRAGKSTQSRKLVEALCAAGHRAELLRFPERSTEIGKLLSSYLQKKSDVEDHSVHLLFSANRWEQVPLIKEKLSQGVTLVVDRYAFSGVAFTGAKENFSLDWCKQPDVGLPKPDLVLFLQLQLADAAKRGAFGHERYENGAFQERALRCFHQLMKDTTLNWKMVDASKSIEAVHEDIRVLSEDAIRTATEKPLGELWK
Procedure: (§1) The TMPK reaction was started by adding purified hTMPK in 50 μl of TMPK assay buffer (100 mM Tris-HCl, pH 7.5, 100 mM KCl, 10 mM MgCl2, 50 μM ATP and 100 μM dTMP) in 96 wells plate at 25° C. for 10 min and terminated by adding 200 μl of DTNB (100 μM), followed by transferring 10 μl of reaction solution to a white 96-wellplate containing 90 μl of luciferase assay buffer (50 mM Glycine, 0.5 mM EDTA and 5 mM EDTA, pH 7.0, 0.1 μg of luciferase, 50 μM luciferin and 0.1% BSA). The luminescence was measured with a luminescence counter (Packard).
(§2) All reactions were performed in 96-well plates in an assay volume of 100 μl. The activity of hTMPK was measured at 25° C. using a modified NADH coupled colorimetric assay as described (Agarwal et al., 1978; Miyata et al., 2003; Ostermann et al., 2003), in which purified hTMPK was added to the buffer containing 100 mM Tris-HCl, pH 7.5, 100 mM KCl, 10 mM MgCl2, 0.5 mM phosphoenol pyruvate, 0.25 mM NADH, 5 units of lactate dehydrogenase, 4 units of pyruvate kinase, 1 mM ATP, and 200 μM dTMP. The change of NADH was measured by reading the absorbance at 340 nm. One unit of TMPK activity is defined as the conversion of […] of TMP to TDP per minute.
The in vitro inhibitory activities of test compounds (at 2 μM concentration) against human TMPK are shown in Table 3 and compared with that of YMU1 and YMU2.

[2] = system: Human RM osteosarcoma cells; test: Colony formation analysis of osteosarcoma cells; assay type: cell-based; details: for effect on suppressing colony formation, single agent: compound 5 μM or doxorubicin 20 nM alone, 2 days, replated for 1 week; for colony formation, combination with doxorubicin: compound 5 μM plus doxorubicin 20 nM
Procedure: FIG. 5. The effect of TMPK inhibitors alone or in combination with a chemotherapeutic agent on viability of osteosarcoma cells. (A) Human RM osteosarcoma cells (a representative bone cancer cells) were seeded at 2×10^4/35 mm dish and treated with Doxorubicin (20 nM), compound I-d-7 (5 μM), compound I-d-6 (5 μM) as indicated. After 2 days, medium was replaced with fresh medium without drug and cells were replated to a 24-well plate at 600 cells/well for 1 week for colony formation analysis.

[3] = target: T1, hTMPK; test: IC50 determination by enzymatic assay; assay type: biochemical
Procedure: as §1, §2
In one embodiment, the IC50 values were determined by enzymatic assay.

[4] = target: T1, hTMPK; test: Inhibition constant (Ki) by NADH-coupled TMPK assay; assay type: biochemical; details: pre-incubated with 0.5 μg purified hTMPK for 10 min
Procedure: as §2
For determination of inhibition constant (Ki value), the inhibitor at the indicated concentration was pre-incubated with 0.5 μg of purified hTMPK protein for 10 min, and the initial velocity of the TMPK reaction was measured in the presence of ATP (1 mM) and different concentrations of TMP (2-200 μM) or in the presence of TMP (200 μM) and different concentrations of ATP (5-1000 μM) using NADH-coupled TMPK assay as described in the Methods of the Invention section. The Ki value was calculated from an equation of Ki=[I]/(Vmax/Vmax^I−1) wherein [I] is the concentration of inhibitor, and Vmax^I is the maximal velocity in the presence of inhibitor.

[5] = system: HCT-116 p53−/− cells; test: γH2AX foci staining to indicate DNA damage (genotoxicity); assay type: cell-based
Procedure: FIG. 1. TMPK knockdown has no genotoxicity but promoting doxorubicin-induced cell death in p53 proficient and deficient colon cancer cells. […] These cells were fixed for γH2AX foci staining to indicate DNA damage and Western blotting analysis. (B-C) FITC-labeled annexin V apoptosis assay. (B) p53(+/+) HCT-116 were and (−/−) HCT-116 cells were infected with or without lentiviral TMPK^shRNA for 72 hr, treated with 0.5 μM doxorubicin for 24 hr (C) Cells were with or without lentiviral TS^shRNA for 72 hr with a subsequent 1 μM doxorubicin treatment for 24 hr as indicated Cells were then stained with FITC-labeled annexin V and observed by fluorescent microscopy. Green-positive indicates apoptotic cell.
For γH2AX staining, cells were fixed with 4% paraformaldehyde for 30 min at room temperature and were incubated with TBS (50 mM Tris-HCl, pH 7.4, 150 mM NaCl) plus 0.3% Triton X-100 for 5 min. The coverslips were blocked with MAXblock™ (Active Motif) for 1 h at 37° C., followed by staining with primary antibodies: anti-γH2AX monoclonal antibody (1:1000), anti-Rad51 polyclonal
To understand the differential DNA damage effect of blocking thymidylate kinase (TMPK) and thymidylate synthase (TS) in colon cancer cells. TMPK or TS expression was depleted in colon cancer cells, HCT-116 p53^−/−, by infection with lentivirus expressing corresponding shRNA. […]

[6] = system: MDA-MB231 cell; test: Doxorubicin sensitization in MDA-MB231 cell treatment; assay type: cell-based; details: compound at 2 μM
Procedure: Cells plated into a 96-well plate (10^3 cells/well) were treated and cell viability was measured by MTS assay (Promega) (Cory et al., 1991). An annexin V-fluorescein isothiocyanate (FITC) apoptosis kit (Calbiochem) was used to detect apoptosis.

| SMILES | inhibition at 2 µM [1] | IC50 [3] | further results |
| --- | --- | --- | --- |
| CC(C)(C)OC(=O)N1CCN(C(=O)Cn2sc3cc(F)ccc3c2=O)CC1 [I-d-7, Tert-butyl 4-(2-(6-fluoro-3-oxobenzo[d]isothiazol-2(3H)-yl)acetyl)piperazine-1-carboxylate] | 66 ± 7% | – | effect on suppressing colony formation, single agent [2]: significant effect on suppressing colony formation; colony formation, combination with doxorubicin [2]: further decreased colony formation |
| Cc1cc(C)c2c(=O)n(CC(=O)N3CCN(C(=O)Cn4sc5nc(C)cc(C)c5c4=O)CC3)sc2n1 [I-b-4, 1,4-Bis[(3-oxo-4,6-dimethylisothiazolo[5,4-b]pyridin-2-yl)acetyl]piperazine] | 32 ± 2% | 800 nM | – |
| Cc1cc(C)c2c(=O)n(CC(=O)N3CCN(C(=O)Cn4sc5ccccc5c4=O)CC3)sc2n1 [I-b-5, 4-[(3-Oxo-benzo[d]isothiazol-2-yl)acetyl]-1-[(4,6-dimethyl-3-15 oxoisothiazolo[5,4-b]pyridin-2-yl)acetyl]piperazine] | 79 ± 12% | – | Ki [4]: 170 ± 70 nM |
| O=C(NCC(=O)N1CCN(C(=O)Cn2sc3ccccc3c2=O)CC1)Nc1ccccc1 [I-e-5, 1-(2-Oxo-2-(4-(2-(3-oxobenzo[d]isothiazol-2(3H)-yl)acetyl)piperazin-1-yl)ethyl)-3-phenylurea] | 100 ± 7% | 1290 nM and 1730 nM | – |
| CCOC(=O)N1CCN(C(=O)Cn2sc3nc(C)cc(C)c3c2=O)CC1 [YMU1, reference compound] | 42 ± 15% | 2210 ± 60 nM | DNA lesions in nuclei (γH2AX foci) ([5]; human, 2 μM): not |
| O=C(NCC(=O)N1CCN(C(=O)Cn2sc3ncccc3c2=O)CC1)Nc1ccccc1 [I-b-1, 1-(2-Oxo-2-(4-(2-(3-oxoisothiazolo[5,4-b]pyridin-2(3H)-yl)acetyl)piperazin-1-yl)ethyl)-3-phenylurea] | 54 ± 7% | 1810 ± 280 nM | – |
| Cc1cc(O)nc2sn(CC(=O)N3CCN(C(=O)OC(C)(C)C)CC3)c(=O)c12 [I-a-5, Tert-butyl 4-[(6-hydroxy-4-methyl-3-oxoisothiazolo[5,4-b]pyridin-2(3H)-2-yl)acetyl]piperazine-1-carboxylate] | 93 ± 9% | 500 nM | – |
| CCOC(=O)N1CCN(C(=O)Cn2sc3nc(C)cc(C)c3c2=O)CC1 [YMU1] | – | – | enhancement on doxorubicin sensitization [6]: 30 fold |
| COc1cccc2c1C(=O)c1c(O)c3c(c(O)c1C2=O)C[C@@](O)(C(=O)CO)C[C@@H]3O[C@H]1C[C@H](N)[C@H](O)[C@H](C)O1 [doxorubicin, reference compound] | – | – | effect on suppressing colony formation, single agent [2]: no effect |
| CC(C)(C)OC(=O)N1CCN(C(=O)Cn2sc3ccc(F)cc3c2=O)CC1 [I-d-6, Tert-butyl 4-(2-(5-fluoro-3-oxobenzo[d]isothiazol-2(3H)-yl)acetyl)piperazine-1-carboxylate] | 87 ± 5% | – | effect on suppressing colony formation, single agent [2]: significant effect on suppressing colony formation; colony formation, combination with doxorubicin [2]: further decreased colony formation |
| O=c1[nH]c(=O)n([C@H]2C[C@H](O)[C@@H](CO)O2)cc1F [FdUrd, 5-fluoro-2′deoxyuridine] | – | – | DNA lesions in nuclei (γH2AX foci) ([5]; YMU1 2 μM for 2 days, FdUrd 2 μM for 1 day): gave DNA lesions in nuclei |
| O=C(Cn1sc2ccccc2c1=O)N1CCN(C(=O)Cn2sc3ccccc3c2=O)CC1 [I-e-8, 1,4-Bis[(3-oxo-benzo[d]isothiazol-2-yl)acetyl]piperazine] | 89 ± 6% | 450 nM | – |
| Cc1cc(N)nc2sn(CC(=O)N3CCN(C(=O)Cn4sc5nc(N)cc(C)c5c4=O)CC3)c(=O)c12 [I-b-6, 1,4-Bis[(6-amino-4-methyl-3-oxoisothiazolo[5,4-b]pyridin-2-yl)acetyl]piperazine] | 48 ± 5% | 1100 nM | – |
| Cc1cc(C)c2c(=O)n(CC(=O)N3CCNCC3)sc2n1 [I-c-2, 4,6-Dimethyl-2-(2-oxo-2-(piperazin-1-yl)ethyl)isothiazolo[5,4-b]pyridin-3(2H)-one] | 46 ± 2% | – | – |
| CC(C)(C)OC(=O)N1CCN(C(=O)Cn2sc3cc(C(F)(F)F)ccc3c2=O)CC1 [I-d-12, Tert-butyl4-(2-(3-oxo-6-(trifluoromethyl)benzo[d]isothiazol-2(3H)-yl)acetyl)-piperazine-1-carboxylate] | 84 ± 1% | – | – |
